What was measured:
Trypanosoma cruzi = conditions: cited from earlier work
[1] = tested on: T. cruzi intracellular amastigotes in H9c2 cells; experiment: Rate-of-Kill (RoK) high-content imaging assay, amastigotes per cell (AM/CELL) and curve descriptors; type: cell-based, Trypanosoma cruzi; set-up: key to ME_24h / ME_48h / ME_72h: % reduction in parasite burden (cidal response); t50pct_MCC50 / t50pct_Cmax: unit not given here; conditions: for AM/CELL NORM: figure 4 A
Summary of the method: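 Readouts at each time point are amastigotes per cell and host nuclei count (cytotoxicity), from DRAQ5 high-content imaging. Infection: trypomastigotes on H9c2 at MOI 8 for 18 h. Dosing was 5 μM single point or 11 points, 1/3 steps from 50 μM. Effect scaled between 4 h infected and uninfected controls.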

TcCYP51 = conditions: formerly reported; cited from earlier work

SMILES: CC[C@@H]([C@H](C)O)n1ncn(-c2ccc(N3CCN(c4ccc(OC[C@@H]5CO[C@@](Cn6cncn6)(c6ccc(F)cc6F)C5)cc4)CC3)cc2)c1=O [Posaconazole, reference compound]
- curative dose in mice (Trypanosoma cruzi): 20 mg/kg/day
- ME (maximum effect) in RoK assay (in words) [1]: lower ME
- tlag (in words) [1]: longer tlag_MCC50 and tlag_Cmax values
- ME_24h ([1]; 24h, figure 5): -76.4226
- ME_48h ([1]; 48h, figure 5): -0.321
- ME_72h ([1]; 72h, figure 5): 50.6685
- MCCE (Minimal Compound Concentration with Effect) ([1]; Fig 2C, average, lowest concentration that decreases AUC of AM/CELL versus time by at least 50% vs infected control): 0.003 µM
- MCC50 (Minimal Cidal Concentration 50%) ([1]; Fig 2C, average, lowest concentration that reduces 50% of the parasite load measured at zero time, listed as POS): 6.2 µM
- t50pct_Cmax (t50%_Cmax) ([1]; Fig 2C, average, time to reduce 50% of initial parasite load at maximum concentration): 65.9 h
- MCC50 ([1]; RoK curve descriptor): 6.2 µM
- MCCE ([1]; RoK curve descriptor): 0.003 µM
- AM/CELL NORM ([1]; Time 4): 5.09
- AM/CELL NORM ([1]; Time 24): -32.2625
- AM/CELL NORM ([1]; Time 48): -0.614
- AM/CELL NORM ([1]; Time 72): 48.3608
- Emax ([1]; Trypanosoma cruzi, H9c2, maximum percentage of parasite burden reduction reached by any concentration, 24 hours, read-out: ME 24h (maximum effect at 24 hours, intracellular amastigotes)): -63%
- t50%_Cmax ([1]; at Cmax): 65.9 h
- tlag_Cmax ([1]; at Cmax): 24.0 h
- t50pct_Cmax ([1]; at Cmax, figure 5): 65.8667
- tlag_Cmax ([1]; at Cmax, figure 5): 24
- t50%_MCC50 ([1]; at MCC50): 54.2 h
- tlag_MCC50 ([1]; at MCC50): 29.3 h
- t50pct_MCC50 ([1]; at MCC50, figure 5): 61.3333
- tlag_MCC50 ([1]; at MCC50, figure 5): 46.4
- MCCE ([1]; figure 5): 0.002879
- MCC50 ([1]; figure 5, in µM): 23.7078
- ME_24h (%) ([1]; maximum effect at 24 h, RoK assay): -76.4%
- ME_48h (%) ([1]; maximum effect at 48 h, RoK assay): -0.32%
- ME_72h (%) ([1]; maximum effect at 72 h, RoK assay): 50.7%
- CYP51 pIC50 (TcCYP51): 7.3

Source: article PMC8318231, “Rate-of-Kill (RoK) assays to triage large compound sets for Chagas disease drug discovery: Application to GSK Chagas Box” (PLoS Neglected Tropical Diseases, 2021)
